Consider one molecule from patent US20120136005A1, “E[…] THE TREATMENT OF ANXIETY” (MERZ PHARMA GmbH & CO. KGaA, priority 2009, published 2012).

Each structure is given as a SMILES string.

For assay [1], the system named is unilaterally 6-OHDA-lesioned rats. Briefly: L-DOPA induced dyskinesia (AIM scores) in 6-OHDA-lesioned rat model of Parkinson's disease. It counts as in vivo, Sprague Dawley rats. The note with it: eltoprazine hydrochloride 0.08, 0.3, 1.25 and 5 mg/kg s.c.; after 21 days of L-DOPA; dose-dependent; FIG. 2. The protocol:
Male Sprague Dawley rats (Elevage Janvier, Le Genest Saint Isle, France) weighing between 220 and 250 g at the beginning of the study are used in these experiments. They are housed under a 12 h light/dark cycle with free access to standard pelleted food and tap water. Animal treatment and experimental procedures are approved by local ethical committees (Regierungspräsidium Darmstadt; Germany).
Dopamine-denervating lesions are performed on rats anaesthetized with a 5:1 mixture of ketamine and xylazine (1 ml/kg, i.p.). […] The animals' turning behaviour is recorded in an automated rotometer (TSE Rotameter System, TSE-Systems GmbH, Bad Homburg, Germany) over a 90 min period after the intraperitoneal (i.p.) injection of 2.5 mg/kg dexamphetamine sulphate dissolved in saline. […]
In order to evaluate the severity of LID, AIMs are recorded every second day as described by Cenci et al. (1998). […] Each rat is scored on a severity scale from 0 to 4 based on its frequency and persistence (1=occasional; 2=frequent; 3=continuous but interrupted by sensory distraction; 4=continuous, severe and not interrupted by sensory distraction). […]

The test system of another assay is 5-HT1a receptor. The note with it: Schipper et al. 1990; cited from earlier work.
Another assay concerns Sprague-Dawley rats. Briefly: Open field locomotor activity. The format is in vivo. Here is the method: For contextual fear conditioning, open field, fear potentiated startle and elevate plus maze, experimentally naive adult male Sprague-Dawley rats (250-300 g; Janvier, France) were housed in groups of four per cage. Colony room temperature and humidity were maintained respectively at 20±1° C. and 60±3%. Food and water were available ad libitum and the animals were kept under an alternating 12 h/12 h day-night cycle (lights on at 07.00) for at least 6 days before the experiments were started. All experiments were conducted during the light period of the day-night cycle. For the Vogel test, male experimentally naive Wistar rats (180-220 g, State Breeding Farm “Rappolovo”, St. Petersburg, Russia; N=109) were used. Each animal was used only once.
Eltoprazine hydrochloride was dissolved in sterile water. […]
Locomotor activity was measured in four perspex boxes (ENV-515-16, 43.2 cm×43.2 cm×30 cm) placed in a noise-proof chamber equipped with ventilator and a source of white light (5.6 W) placed 55 cm above floor. […] 4 arrays of 16 infrared photo beams placed 3 cm above the floor measured horizontal activity. […] The output from the counters was integrated and analysed on-line by an PC computer. […]
Total distance travelled during the 60 min was taken for statistical analysis. Data are analysed by one-way ANOVA followed by Dunnett's test.

For `c1cc2c(c(N3CCNCC3)c1)OCCO2` [eltoprazine, 1-(2,3-dihydro-1,4-benzodioxin-5-yl)piperazine], the “effect on AIM scores” value in assay [1] was “significantly reverses”. Moreover, the “effect on 5-HT1a receptor” value with 5-HT1a receptor is on record as “agonistic effect”. Further, the “total distance travelled in the open field” value with Sprague-Dawley rats (1.25 mg/kg s.c.) is listed as “significantly increased”. Also, the “locomotor activity in the open field at anxiolytic doses” value with Sprague-Dawley rats (acute s.c., 60 min before the test, FIG. 5) is “not related to non-specific increase in locomotor activation”.
